Experimental data: patent US9981972B2, “N-hydroxy bicyclic hydantoin carbamates as tools for identification of serine hydrolase targets” (ABIDE THERAPEUTICS, INC., priority 2014, dated 2018)
Converted amounts (≈) assume the structure as drawn.

Tests used:
Solubility in PBS = type: physicochemical; details: phosphate buffered saline, aqueous buffer, kinetic from dmso stock, PBS pH 7.4, 1% DMSO, 22° C.
Description: The solubility of compounds were tested in triplicate in phosphate buffered saline (PBS), pH 7.4. Per well, 198 μL PBS is added to a Millipore Solvinert Hydrophilic PTFE 96 well filter plate: pore size: 0.45 μm (MSRLN0450). Test compounds were introduced from 10 mM DMSO stock solutions (2 μL). The final concentration of DMSO was 1 percent. Samples were allowed to incubate at 22° C. for 18 hours. In the morning the plate was centrifuged where the soluble portion passes through the filter and was collected in a capture plate. Clotrimazole was included as a control to assure the assay was working properly. The samples were analyzed by HPLC. Peak area was compared to a standard of known concentration.

[1] = Solubility in media (DMEM+10% FBS); type: physicochemical; details: plasma or biological fluid, kinetic from dmso stock, complete media (DMEM+10% FBS), 22° C., read-out: solubility in DMEM containing 10% serum
Description: Solubility in Media: The solubility of compounds were tested in triplicate in complete media (DMEM+10% FBS). Per well, 198 μL PBS is added to a Millipore Solvinert Hydrophilic PTFE 96 well filter plate: pore size: 0.45 μm (MSRLN0450). Test compounds were introduced from 10 mM DMSO stock solutions (2 μL). The final concentration of DMSO was 1 percent. Samples were allowed to incubate at 22° C. for 18 hours. In the morning the plate was centrifuged where the soluble portion passed through the filter and was collected in a capture plate. The samples were analyzed by HPLC (Agilent 1100 with diode-array detector). Peak area was compared to a standard of known concentration.

Stability in PBS = type: physicochemical; details: 10 μM compound, ambient temperature
Description: Samples were held in the HPLC autosampler at ambient temperature. At approximately 0, 1, 2, 4, 8, 24, and 48 hours the samples were injected on the HPLC. Peak area and retention time were compared between injections. Data was log transformed and represented as half-life. DMSO was added as a co-solvent as needed for solubility.

[2] = Determination of glutathione reactivity; type: physicochemical; details: 10 μM compound, 50 μM glutathione, 37° C., 6 h
Description: Compound (10 μM) was incubated at 37° C. for 6 hours in the presence of 50 μM freshly prepared reduced glutathione. At 0 and 6 hours the samples were injected into the HPLC instrument. Peak area and retention time were compared between injections. Samples were evaluated for a glutathione dependent decrease in compound concentration. DMSO was added as a co-solvent as needed for solubility.

human LYPLA1 = molecular target: T1, human LYPLA1 (Homo sapiens, UniProt O75608); assay: IC50 by gel-based competitive ABPP in situ, cultured HeLa cells; type: cell-based; details: 2 h, serum-supplemented medium
T1 construct: endogenous human LYPLA1/2 in a HeLa soluble proteome; endogenous in cells; host or cells: HeLa (soluble proteome in vitro; cultured cells in situ)
Description: (§1) Assay Overview: The purpose of this assay was to determine IC50 values of powder samples of test compounds for enzyme of interest activity in situ using a gel-based competitive ABPP assay. In this assay, cultured cells were treated with test compound, harvested, and lysed. The isolated soluble proteome fraction was reacted with FP-Rh and analyzed by SDS-PAGE as described above.
(§2) Protocol Summary: To cultured HeLa cells (90% confluent) was added fresh DMEM (5 mL total volume; supplemented with 10% FCS) pre-mixed with DMSO or test compound. After 2 hours at 37° C., cells were harvested by scraping, washed twice with 10 mL DPBS, and homogenized by sonication in DPBS. The soluble fraction was isolated by centrifugation (100K×g, 45 minutes) and the protein concentration was adjusted to 1 mg/mL with DPBS. FP-Rh (1 μL of 50× stock in DMSO) was added to a final concentration of 2 μM in 50 μL total reaction volume. The reaction was incubated for 30 minutes at 25° C., quenched with 16 μL 4×SDS-PAGE loading buffer (reducing), separated by SDS-PAGE and visualized by in-gel fluorescent scanning. The percentage activity remaining was determined by measuring the integrated optical density of the enzymes of interest, and anti-target bands relative to a DMSO-only (no compound) control. […]

human LYPLA2 = molecular target: T2, human LYPLA2 (Homo sapiens, UniProt O95372); assay: as above; type: cell-based; details: 2 h, serum-supplemented medium
T2 construct: endogenous human LYPLA1/2 in a HeLa soluble proteome; endogenous in cells; host or cells: HeLa (soluble proteome in vitro; cultured cells in situ)
Description: as §1, §2

[3] = tested on: SH anti-targets in HeLa cells; assay: Gel-based competitive ABPP in situ, cultured HeLa cells, anti-targets; type: cell-based, human; details: 2 h, any compound concentration, ABHD6 not visible
Description: as §1
as §2, with “The reaction was incubated for 30 minutes at 25° C., quenched with 16 μL 4×SDS-PAGE loading buffer (reducing), separated by SDS-PAGE and visualized by in-gel fluorescent scanning.” left out
Compound 1 is active in situ against the LYPLA enzymes (see FIG. 3A) as assessed by gel-based competitive ABPP with FP-Rh following two hours of compound treatment of HeLa cells cultured in serum-supplemented medium.

T2 sequence (O95372 whole entry): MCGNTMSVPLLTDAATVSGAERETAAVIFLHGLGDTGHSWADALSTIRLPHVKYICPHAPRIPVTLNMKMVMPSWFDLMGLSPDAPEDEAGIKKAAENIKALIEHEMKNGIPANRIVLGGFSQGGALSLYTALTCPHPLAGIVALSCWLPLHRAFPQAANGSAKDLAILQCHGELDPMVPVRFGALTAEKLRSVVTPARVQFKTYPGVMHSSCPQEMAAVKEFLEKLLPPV
T1 sequence (O75608 whole entry): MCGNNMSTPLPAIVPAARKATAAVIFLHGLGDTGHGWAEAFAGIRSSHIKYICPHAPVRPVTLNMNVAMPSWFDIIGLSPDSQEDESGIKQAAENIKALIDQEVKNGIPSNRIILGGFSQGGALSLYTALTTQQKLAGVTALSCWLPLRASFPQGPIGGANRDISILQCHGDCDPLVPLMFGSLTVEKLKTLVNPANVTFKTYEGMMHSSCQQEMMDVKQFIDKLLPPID

solubility at 18 h (Solubility in PBS): 18 µM (≈ 9.61 µg/mL)
solubility at 18 h [1]: 46 µM (≈ 24.6 µg/mL)
half-life at 10 µM (Stability in PBS): 19 h
reactivity with glutathione [2]: did not show any reactivity
IC50 (human LYPLA1): 87 nM
IC50 (human LYPLA2): 143 nM
SMILES: O=C(ON1C(=O)C2CN(C(=O)N3CCOCC3)CCN2C1=O)N1CCC(CCc2ccc(Cl)cc2)CC1 (stereo not shown) [Compound 1, 7-(morpholine-4-carbonyl)-1,3-dioxohexahydroimidazo[1,5-a]pyrazin-2(3H)-yl 4-(4-chloro-phenethyl)piperidine-1-carboxylate]
anti-target inhibition in situ [3]: No anti-target inhibition
